Test results taken from PubChem BioAssay AID210 (DTP/NCI, 2004).
Several values for one entry are separate records, joined by “and”; a condition that tells them apart may be missing. Equal entries are not always repeated. Inconclusive results and toxic doses are left out.

Test system: CD2F1 mice, ip Colon 26 adenocarcinoma, median survival T/C
Experiment: NCI In Vivo Anticancer Drug Screen. Data for tumor model Colon 26 Adenocarcinoma (intraperitoneal) in CD2F1 (CDF1) mice
Conditions: endpoint: median survival time, higher = longer survival
Protocol: The antitumor activity of compounds was measured in mice bearing transplantable tumors. Survival or tumor size were measured and the results are expressed as the measurement made in the treated group (T) divided by the measurement made in the vehicle treated control group (C). The tumor model used in this assay is Colon 26 Adenocarcinoma (intraperitoneal) in CD2F1 (CDF1) mice

[1] = dose: 25.0 mg/kg/injection, schedule: Q04DX002 (ip), vehicle: saline
[2] = dose: 100.0 mg/kg/injection, schedule: Q04DX002 (ip), vehicle: saline
[3] = dose: 200.0 mg/kg/injection, schedule: Q04DX002 (ip), vehicle: saline
[4] = dose: 12.5 mg/kg/injection, schedule: Q04DX003 (ip), vehicle: Klucel (hydroxypropylcellulose) (HPC)
[5] = dose: 25.0 mg/kg/injection, schedule: Q04DX003 (ip), vehicle: Klucel (hydroxypropylcellulose) (HPC)
[6] = dose: 50.0 mg/kg/injection, schedule: Q04DX003 (ip), vehicle: Klucel (hydroxypropylcellulose) (HPC)
[7] = dose: 12.5 mg/kg/injection, schedule: Q04DX003 (ip), vehicle: saline with Tween-80
[8] = dose: 50.0 mg/kg/injection, schedule: Q04DX002 (ip), vehicle: Klucel (hydroxypropylcellulose) (HPC)
[9] = dose: 100.0 mg/kg/injection, schedule: Q04DX002 (ip), vehicle: Klucel (hydroxypropylcellulose) (HPC)

`Nc1ccc2nc3ccc(N)cc3[n+](-c3ccccc3)c2c1` was tested, and the T/C (dose: 4.0 mg/kg/injection, schedule: Q04DX003 (ip), vehicle: saline) was 121 % of control, the T/C (dose: 8.0 mg/kg/injection, schedule: Q04DX003 (ip), vehicle: saline) was 120 % of control and the T/C (dose: 16.0 mg/kg/injection, schedule: Q04DX003 (ip), vehicle: saline) was 120 % of control.

In the case of `Nc1nc2c(ncn2C2OC(CO)C(O)C2N)c(=O)[nH]1` (configuration not stated), the T/C (dose: 3.0 mg/kg/injection, schedule: Q04DX002 (ip), vehicle: saline with Tween-80) is reported as 95 % of control, the T/C (dose: 6.0 mg/kg/injection, schedule: Q04DX002 (ip), vehicle: saline with Tween-80) is reported as 105 % of control and the T/C (dose: 12.0 mg/kg/injection, schedule: Q04DX002 (ip), vehicle: saline with Tween-80) is reported as 88 % of control. For the same compound, the T/C (dose: 24.0 mg/kg/injection, schedule: Q04DX002 (ip), vehicle: saline with Tween-80) was 88 % of control, the T/C (dose: 48.0 mg/kg/injection, schedule: Q04DX002 (ip), vehicle: saline with Tween-80) was 96 % of control and the T/C (dose: 96.0 mg/kg/injection, schedule: Q04DX002 (ip), vehicle: saline with Tween-80) was 93 % of control.

With `CCOC(=O)CC(SP(=S)(OC)OC)C(=O)OCC` (configuration not stated) the T/C [1] was 103 % of control, the T/C (dose: 50.0 mg/kg/injection, schedule: Q04DX002 (ip), vehicle: saline) was 94 % of control and the T/C [2] was 104 % of control. For the same compound, the T/C [3] was 90 % of control and the T/C (dose: 400.0 mg/kg/injection, schedule: Q04DX002 (ip), vehicle: saline) was 91 % of control.

With `CC(=O)OCc1cc(=O)n(C)c2c3c4c(cc12)c(C)cc(=O)n4CO3` the T/C [4] was 106 % of control, the T/C [5] was 106 % of control and the T/C [6] was 115 % of control. The T/C (dose: 200.0 mg/kg/injection, schedule: Q04DX003 (ip), vehicle: Klucel (hydroxypropylcellulose) (HPC)) was 115 % of control.

`Cc1[nH]c(=O)[nH]c(=O)c1N(CCF)CCCl` was tested, and the T/C (dose: 8.0 mg/kg/injection, schedule: Q04DX002 (ip), vehicle: Klucel (hydroxypropylcellulose) (HPC)) was 111 % of control and 112 % of control, the T/C (dose: 16.0 mg/kg/injection, schedule: Q04DX002 (ip), vehicle: Klucel (hydroxypropylcellulose) (HPC)) was 114 % of control and 121 % of control and the T/C (dose: 32.0 mg/kg/injection, schedule: Q04DX002 (ip), vehicle: Klucel (hydroxypropylcellulose) (HPC)) was 122 % of control.

For `CC(=O)OCC1(C)C(O)CCC2(C)C1CCC1CC3CC12CCC3(O)CO` (configuration not stated), the T/C (dose: 12.5 mg/kg/injection, schedule: Q04DX002 (ip), vehicle: distilled water + Tween-80) was 103 % of control, the T/C (dose: 25.0 mg/kg/injection, schedule: Q04DX002 (ip), vehicle: distilled water + Tween-80) was 111 % of control and the T/C (dose: 50.0 mg/kg/injection, schedule: Q04DX002 (ip), vehicle: distilled water + Tween-80) was 95 % of control. The T/C (dose: 100.0 mg/kg/injection, schedule: Q04DX002 (ip), vehicle: distilled water + Tween-80) was 104 % of control.

For `CN(C)C(=O)c1cccc(COc2ccc(N3C(N)=NC(N)=NC3(C)C)cc2Cl)c1`, the T/C (dose: 24.0 mg/kg/injection, schedule: Q06HX018 (ip), vehicle: saline) was 96 % of control and the T/C (dose: 36.0 mg/kg/injection, schedule: Q06HX018 (ip), vehicle: saline) was 98 % of control.

In the case of `O=C([O][Hg][CH2]C1COC([CH2][Hg][O]C(=O)c2ccccc2)CO1)c1ccccc1` (configuration not stated), the T/C (dose: 37.5 mg/kg/injection, schedule: Q04DX003 (ip), vehicle: saline with Tween-80) is reported as 89 % of control and the T/C (dose: 75.0 mg/kg/injection, schedule: Q04DX003 (ip), vehicle: saline with Tween-80) is reported as 94 % of control.

`Cc1c2ccncc2c(C)c2c1[nH]c1ccccc12` was tested, and the T/C (dose: 12.5 mg/kg/injection, schedule: Q04DX002 (ip), vehicle: Klucel (hydroxypropylcellulose) (HPC)) was 158 % of control, the T/C (dose: 12.5 mg/kg/injection, schedule: Q04DX002 (ip), vehicle: saline) was 122 % of control and the T/C [4] was 186 % of control. For the same compound, the T/C [7] was 112 % of control, the T/C [1] was 156 % of control and the T/C [5] was 263 % of control. The T/C (dose: 25.0 mg/kg/injection, schedule: Q04DX003 (ip), vehicle: saline with Tween-80) was 152 % of control, the T/C [8] was 158 % of control and the T/C [6] was 242 % of control. For the same compound, the T/C [9] was 170 % of control, the T/C [2] was 150 % of control and the T/C (dose: 100.0 mg/kg/injection, schedule: Q04DX003 (ip), vehicle: Klucel (hydroxypropylcellulose) (HPC)) was 242 % of control. The T/C (dose: 100.0 mg/kg/injection, schedule: Q04DX003 (ip), vehicle: saline with Tween-80) was 165 % of control, the T/C [3] was 156 % of control and the T/C (dose: 200.0 mg/kg/injection, schedule: Q04DX003 (ip), vehicle: saline with Tween-80) was 214 % of control.

For `COc1ccc2c(c1)CCC(c1ccccc1)=C2c1ccc(OCCN2CCCC2)cc1`, the T/C (dose: 6.25 mg/kg/injection, schedule: Q01DX009 (ip), vehicle: saline) was 115 % of control, the T/C (dose: 12.5 mg/kg/injection, schedule: Q01DX009 (ip), vehicle: saline) was 111 % of control and the T/C (dose: 25.0 mg/kg/injection, schedule: Q01DX009 (ip), vehicle: saline) was 112 % of control.

For `COC(C(=O)C(O)C(C)O)C1CC2C=C3C=C(OC4CC(OC5CC(O)C(OC)C(C)O5)C(OC(C)=O)C(C)O4)C(C)C(=O)C3=C(O)C2=C(O)C1OC1CC(OC2CC(OC3CC(C)(O)C(O)C(C)O3)C(O)C(C)O2)C(O)C(C)O1` (configuration not stated), the T/C (dose: 0.5 mg/kg/injection, schedule: Q04DX003 (ip), vehicle: saline with Tween-80) was 100 % of control, the T/C (dose: 1.0 mg/kg/injection, schedule: Q04DX003 (ip), vehicle: saline with Tween-80) was 99 % of control and the T/C (dose: 2.0 mg/kg/injection, schedule: Q04DX003 (ip), vehicle: saline with Tween-80) was 99 % of control. For the same compound, the T/C (dose: 4.0 mg/kg/injection, schedule: Q04DX003 (ip), vehicle: saline with Tween-80) was 96 % of control and the T/C (dose: 8.0 mg/kg/injection, schedule: Q04DX003 (ip), vehicle: saline with Tween-80) was 102 % of control.

For `COc1ccc(CC2C(=O)NC(C)C(=O)N(C)C3C(=O)N(C)C(Cc4ccc(O)c(c4)Oc4ccc(cc4)C3O)C(=O)NC(C)C(=O)NC(C)C(=O)N2C)cc1` (configuration not stated), the T/C (dose: 0.5 mg/kg/injection, schedule: Q04DX003 (ip), vehicle: saline) was 98 % of control, the T/C (dose: 1.0 mg/kg/injection, schedule: Q04DX003 (ip), vehicle: saline) was 101 % of control and the T/C (dose: 1.08 mg/kg/injection, schedule: Q04DX003 (ip), vehicle: other) was 91 % of control. For the same compound, the T/C (dose: 1.8 mg/kg/injection, schedule: Q04DX003 (ip), vehicle: other) was 113 % of control, the T/C (dose: 2.0 mg/kg/injection, schedule: Q04DX003 (ip), vehicle: saline) was 92 % of control and the T/C (dose: 3.0 mg/kg/injection, schedule: Q04DX003 (ip), vehicle: other) was 120 % of control. The T/C (dose: 5.0 mg/kg/injection, schedule: Q04DX003 (ip), vehicle: other) was 114 % of control.

For `C=CC(=O)N1CN(C(=O)C=C)CN(C(=O)C=C)C1`, the T/C (dose: 3.13 mg/kg/injection, schedule: Q04DX003 (ip), vehicle: saline with Tween-80) was 115 % of control, the T/C (dose: 6.25 mg/kg/injection, schedule: Q04DX003 (ip), vehicle: saline with Tween-80) was 110 % of control and the T/C [7] was 106 % of control. The T/C (dose: 12.5 mg/kg/injection, schedule: Q04DX003 (ip), vehicle: saline) was 122 % of control.

`COC1=CC(=O)N(C(=O)C2CSC(C(CO)NC(=O)c3csc(/C=N/O)n3)=N2)C1` (configuration not stated) was tested, and the T/C [8] was 93 % of control, the T/C [9] was 105 % of control and the T/C (dose: 200.0 mg/kg/injection, schedule: Q04DX002 (ip), vehicle: Klucel (hydroxypropylcellulose) (HPC)) was 101 % of control. For the same compound, the T/C (dose: 400.0 mg/kg/injection, schedule: Q04DX002 (ip), vehicle: Klucel (hydroxypropylcellulose) (HPC)) was 105 % of control.
